The source of these data is patent publication US20020114822A1, “Attractants for yellow jackets” (priority 2000, published 2002).

The subject of this assay is yellow jackets indigenous to the west coast (V. pensylvanica). Put plainly: Trials B: trap catch on the west coast, preferred formulation against heptyl butyrate formulations. The assay is classed as in vivo. As to conditions: average of two trials of each formulation. The source says: In the Examples and reported test results that follow, traps were usually hung in trees approximately four to six feet above the ground. A number of traps were used in each area where tests were made and the traps were spaced anywhere from fifteen to fifty feet apart. The traps used were commercially available traps generally of the top opening lid variety. Holes were made in the lids which were large enough to allow a yellow jacket to crawl inside the trap but small enough to confuse the yellow jackets in finding their way out. A trap of this kind is commercially available from Woodstream, Inc. sold under its trade name Yellow Jacket Trap®. The “vinegar” used in the examples was a vinegar as defined by FDA being a 5% acetic acid solution derived from apples. The “preferred formulation” used in the below reported trials was comprised of 58% apple juice concentrate; 36% vinegar; 5% poultry liver; and 1% dish detergent. Test were conducted on the west coast to compare the effectiveness of the preferred formulation of the invention with commercial formulations containing heptyl butyrate. Two trials of each formulation were made and the numbers indicate the average number of yellow jackets caught in the trials. […]

`CCCCCCCOC(=O)CCC` [Heptyl Butyrate]: the “average number of yellow jackets caught” value was 64.
